# Laboratory results: patent US9604968B2, “Pure crystalline Form II of L-malic acid salt of sunitinib and processes for its preparation” (RANBAXY LABORATORIES LIMITED, priority 2013, dated 2017)
# Columns and labels:
# [1] = Storage stability: chromatographic purity (HPLC) of crystalline Form II on storage; assay type: physicochemical; conditions: for Chromatographic Purity (1M storage at 25° C. ± 2° C./60% ± 5% RH) / Chromatographic Purity after 1M storage (at 25° C.±2° C./60%±5% RH) / Chromatographic Purity (1M storage at 40° C. ± 2° C./75% ± 5% RH) / Chromatographic Purity after 1M storage (at 40° C.±2° C./75%±5% RH): 1 month storage; for Chromatographic Purity (Initial): before storage
# Source text: In an embodiment of the first aspect, the pure crystalline Form II of the L-malic acid salt of sunitinib has a purity of not less than 97.0% as measured by a chromatographic technique such as High-Performance Liquid Chromatography (HPLC).
# Table 1 below compares the chromatographic purity of crystalline Form II of an L-malic acid salt of sunitinib prepared without using an anti-oxidant (as per Example 8), and pure crystalline Form II of an L-malic acid salt of sunitinib prepared using an anti-oxidant (as per Examples 1, 2, and 4), on storage at 25° C.±2° C. and 40° C.±2° C. at a relative humidity of 60%±5% and 75%±5%, respectively, for 1 month and above.
# [2] = cited from earlier work
smiles,measurement,setting,value
"CCN(CC)CCNC(=O)c1c(C)[nH]c(/C=C2\C(=O)Nc3ccc(F)cc32)c1C.O=C(O)C[C@H](O)C(=O)O [Example 1, butanedioic acid, hydroxy-, (2S)-, compound with N-[2-(diethylamino)ethyl]-5-[(Z)-(5-fluoro-1,2-dihydro-2-oxo-3H-indol-3-ylidine)methyl]-2,4-dimethyl-1H-pyrrole-3-carboxamide (1:1)]",Chromatographic Purity (1M storage at 25° C. ± 2° C./60% ± 5% RH),"[1]; 25° C.±2° C., 60%±5% RH",98.4% w/w
same,Chromatographic Purity after 1M storage (at 25° C.±2° C./60%±5% RH),"[1]; 25° C.±2° C., 60%±5% RH",98.4%
same,Chromatographic Purity (1M storage at 40° C. ± 2° C./75% ± 5% RH),"[1]; 40° C.±2° C., 75%±5% RH",97.0% w/w
same,Chromatographic Purity after 1M storage (at 40° C.±2° C./75%±5% RH),"[1]; 40° C.±2° C., 75%±5% RH",97.0%
same,Chromatographic Purity (Initial),[1],99.1% w/w
same,Chromatographic Purity (Initial),[1]; example text,99.10%
"CCN(CC)CCNC(=O)c1c(C)[nH]c(/C=C2\C(=O)Nc3ccc(F)cc32)c1C.O=C(O)C[C@H](O)C(=O)O [Example 2, butanedioic acid, hydroxy-, (2S)-, compound with N-[2-(diethylamino)ethyl]-5-[(Z)-(5-fluoro-1,2-dihydro-2-oxo-3H-indol-3-ylidine)methyl]-2,4-dimethyl-1H-pyrrole-3-carboxamide (1:1)]",Chromatographic Purity (1M storage at 25° C. ± 2° C./60% ± 5% RH),"[1]; 25° C.±2° C., 60%±5% RH",98.7% w/w
same,Chromatographic Purity after 1M storage (at 25° C.±2° C./60%±5% RH),"[1]; 25° C.±2° C., 60%±5% RH",98.7%
same,Chromatographic Purity (1M storage at 40° C. ± 2° C./75% ± 5% RH),"[1]; 40° C.±2° C., 75%±5% RH",97.3% w/w
same,Chromatographic Purity after 1M storage (at 40° C.±2° C./75%±5% RH),"[1]; 40° C.±2° C., 75%±5% RH",97.3%
same,Chromatographic Purity (Initial),[1],99.7% w/w
same,Chromatographic Purity (Initial),[1]; example text,99.70%
"CCN(CC)CCNC(=O)c1c(C)[nH]c(/C=C2\C(=O)Nc3ccc(F)cc32)c1C.O=C(O)C[C@H](O)C(=O)O [Example 4, butanedioic acid, hydroxy-, (2S)-, compound with N-[2-(diethylamino)ethyl]-5-[(Z)-(5-fluoro-1,2-dihydro-2-oxo-3H-indol-3-ylidine)methyl]-2,4-dimethyl-1H-pyrrole-3-carboxamide (1:1)]",Chromatographic Purity (1M storage at 25° C. ± 2° C./60% ± 5% RH),"[1]; 25° C.±2° C., 60%±5% RH",99.7% w/w
same,Chromatographic Purity after 1M storage (at 25° C.±2° C./60%±5% RH),"[1]; 25° C.±2° C., 60%±5% RH",99.70%
same,Chromatographic Purity (1M storage at 40° C. ± 2° C./75% ± 5% RH),"[1]; 40° C.±2° C., 75%±5% RH",99.3% w/w
same,Chromatographic Purity after 1M storage (at 40° C.±2° C./75%±5% RH),"[1]; 40° C.±2° C., 75%±5% RH",99.3%
same,Chromatographic Purity (Initial),[1],99.7% w/w
same,Chromatographic Purity (Initial),[1]; example text,99.70%
"CCN(CC)CCNC(=O)c1c(C)[nH]c(/C=C2\C(=O)Nc3ccc(F)cc32)c1C.O=C(O)C[C@H](O)C(=O)O [Example 7, butanedioic acid, hydroxy-, (2S)-, compound with N-[2-(diethylamino)ethyl]-5-[(Z)-(5-fluoro-1,2-dihydro-2-oxo-3H-indol-3-ylidine)methyl]-2,4-dimethyl-1H-pyrrole-3-carboxamide (1:1)]",Chromatographic Purity (1M storage at 25° C. ± 2° C./60% ± 5% RH),"[1]; 25° C. ± 2° C., 60% ± 5% RH, listed as Example 8",87.4% w/w
same,Chromatographic Purity after 1M storage (at 25° C.±2° C./60%±5% RH),"[1]; 25° C.±2° C., 60%±5% RH",87.4%
same,Chromatographic Purity (1M storage at 40° C. ± 2° C./75% ± 5% RH),"[1]; 40° C. ± 2° C., 75% ± 5% RH, listed as Example 8",87.8% w/w
same,Chromatographic Purity after 1M storage (at 40° C.±2° C./75%±5% RH),"[1]; 40° C.±2° C., 75%±5% RH",87.8%
same,Chromatographic Purity (Initial),[1]; example text,99.50%
same,Chromatographic Purity (Initial),[1]; listed as Example 8,99.5% w/w
CCN(CC)CCNC(=O)c1c(C)[nH]c(/C=C2\C(=O)Nc3ccc(F)cc32)c1C.O=C(O)C[C@H](O)C(=O)O [Form II of sunitinib L-malate],hygroscopicity,[2]; disclosed in WO 2009/104021,hygroscopic
CCN(CC)CCNC(=O)c1c(C)[nH]c(/C=C2\C(=O)Nc3ccc(F)cc32)c1C.O=C(O)C[C@H](O)C(=O)O [stable crystalline Form II],form conversion and moisture absorption on storage,[2]; disclosed in WO 2011/061613,does not convert to any other form or absorb moisture on storage
